US8148391B2 (Cephalon, Inc., priority 2006, dated 2012)
Like-named read-outs stand apart in the source and are kept apart here. Values belong to the compound of their own block, whether it stands above or below them.

Columns and labels:
[1] = biological target: T1, c-Met (cytoplasmic domain) (Homo sapiens, UniProt P08581); experiment: c-Met Kinase Assay (same methods as for ALK, with modifications); type: biochemical
T1 construct: 10 ng/mL c-Met (cytoplasmic domain, Invitrogen Corporation #PV3143); purchased Invitrogen Corporation PV3143
T1 sequence (P08581 956-1390 limits assumed): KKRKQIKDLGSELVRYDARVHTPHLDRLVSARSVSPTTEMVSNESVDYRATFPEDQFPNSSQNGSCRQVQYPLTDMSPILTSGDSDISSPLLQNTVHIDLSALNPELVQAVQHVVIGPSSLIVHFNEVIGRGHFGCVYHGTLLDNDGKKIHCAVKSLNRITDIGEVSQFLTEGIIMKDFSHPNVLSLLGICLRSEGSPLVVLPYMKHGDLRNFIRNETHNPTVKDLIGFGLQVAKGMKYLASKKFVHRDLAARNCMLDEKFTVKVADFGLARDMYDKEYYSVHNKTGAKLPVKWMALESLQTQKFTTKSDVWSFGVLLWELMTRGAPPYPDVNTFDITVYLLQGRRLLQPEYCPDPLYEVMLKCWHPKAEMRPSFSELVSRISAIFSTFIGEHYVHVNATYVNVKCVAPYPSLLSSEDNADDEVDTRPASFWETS
Summary of the method: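 Europium-labeled PT66 antibody (Eu-N1) detects substrate phosphorylation on wells coated with phospholipase C-γ at 10 μg/mL. The kinase, the cytoplasmic domain of c-Met at 10 ng/mL, starts the reaction, which proceeds 15 minutes at 37° C.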

[2] = biological target: T2, baculovirus-expressed ALK (Homo sapiens, UniProt Q9UM73); experiment: ALK Kinase Assay (ELISA-type, time-resolved fluorescence); type: biochemical
T2 construct: host or cells: baculovirus expression system
T2 sequence (Q9UM73 19-1620): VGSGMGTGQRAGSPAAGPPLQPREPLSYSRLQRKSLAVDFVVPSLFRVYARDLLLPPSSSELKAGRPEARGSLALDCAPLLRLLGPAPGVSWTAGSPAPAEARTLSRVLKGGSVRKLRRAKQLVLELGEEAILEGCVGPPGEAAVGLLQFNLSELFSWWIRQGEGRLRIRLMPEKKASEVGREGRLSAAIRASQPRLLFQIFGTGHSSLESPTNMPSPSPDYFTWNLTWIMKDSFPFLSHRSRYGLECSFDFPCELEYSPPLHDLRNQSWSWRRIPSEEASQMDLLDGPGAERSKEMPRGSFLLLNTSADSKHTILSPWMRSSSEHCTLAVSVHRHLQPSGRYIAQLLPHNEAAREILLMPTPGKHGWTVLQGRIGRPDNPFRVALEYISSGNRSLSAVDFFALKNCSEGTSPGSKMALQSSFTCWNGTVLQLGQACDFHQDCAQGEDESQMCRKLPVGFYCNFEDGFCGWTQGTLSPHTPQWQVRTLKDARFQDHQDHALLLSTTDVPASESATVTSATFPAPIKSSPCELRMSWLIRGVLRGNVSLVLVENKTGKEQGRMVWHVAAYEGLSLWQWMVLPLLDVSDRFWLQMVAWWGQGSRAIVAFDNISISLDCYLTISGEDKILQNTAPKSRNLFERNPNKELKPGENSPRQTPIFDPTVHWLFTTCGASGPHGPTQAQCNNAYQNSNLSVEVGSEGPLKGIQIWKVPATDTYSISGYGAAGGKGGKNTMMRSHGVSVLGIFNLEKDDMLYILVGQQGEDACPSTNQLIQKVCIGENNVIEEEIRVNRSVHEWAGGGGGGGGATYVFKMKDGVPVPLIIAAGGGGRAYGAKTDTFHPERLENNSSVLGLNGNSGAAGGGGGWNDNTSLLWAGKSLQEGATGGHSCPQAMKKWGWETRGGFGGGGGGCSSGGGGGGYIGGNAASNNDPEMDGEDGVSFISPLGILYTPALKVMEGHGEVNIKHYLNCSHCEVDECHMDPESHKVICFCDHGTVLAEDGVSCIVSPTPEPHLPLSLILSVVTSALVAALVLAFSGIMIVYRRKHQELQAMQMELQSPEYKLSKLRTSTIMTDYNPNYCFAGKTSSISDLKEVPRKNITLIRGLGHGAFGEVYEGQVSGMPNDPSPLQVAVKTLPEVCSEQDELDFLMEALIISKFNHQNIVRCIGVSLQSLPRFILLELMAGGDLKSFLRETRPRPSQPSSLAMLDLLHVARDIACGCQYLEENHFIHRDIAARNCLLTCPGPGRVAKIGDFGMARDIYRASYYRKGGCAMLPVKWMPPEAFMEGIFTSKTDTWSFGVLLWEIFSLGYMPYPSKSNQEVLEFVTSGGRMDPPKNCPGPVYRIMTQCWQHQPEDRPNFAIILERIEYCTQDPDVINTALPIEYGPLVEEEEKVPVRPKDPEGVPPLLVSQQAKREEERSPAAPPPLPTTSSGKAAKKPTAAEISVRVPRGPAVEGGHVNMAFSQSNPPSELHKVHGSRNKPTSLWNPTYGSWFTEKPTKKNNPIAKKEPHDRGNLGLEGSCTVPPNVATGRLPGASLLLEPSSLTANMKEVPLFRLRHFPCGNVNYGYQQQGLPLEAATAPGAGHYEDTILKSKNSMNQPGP
Summary of the method: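 Plates coated with phospholipase C-γ substrate (10 μg/mL in TBS); reaction started with 30 ng/ml ALK and run 15 min at 37° C. Phosphorylated substrate detected with Eu-N1-labeled PT66 antibody. IC50 from sigmoidal variable-slope fit of percent inhibition vs log concentration.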

[3] = c-Met kinase inhibition, 1 μM ATP (Km level), read-out: cMet Activity
[4] = ALK kinase inhibition, 1 μM ATP (Km level), read-out: ALK Activity
[5] = c-Met kinase inhibition, 1 μM ATP, read-out: cMet Activity
[6] = ALK kinase inhibition, 1 μM ATP, read-out: ALK Activity
[7] = 1 μM ATP (Km level), 10 ng/mL c-Met, read-out: cMet Activity (c-Met kinase inhibition, IC50 class)
[8] = 1 μM ATP (Km level), 30 ng/ml ALK, 37° C., 15 minutes, read-out: ALK Activity (ALK kinase inhibition, IC50 class)
[9] = 1 μM ATP (Km level), read-out: cMet Activity (c-Met Kinase Inhibition, IC50)
[10] = 1 μM ATP (Km level), read-out: ALK Activity (ALK Kinase Inhibition, IC50)

IC50 [1, 3]: 1000 to 10000 nM
IC50 [2, 4]: < 100 nM
SMILES: COCCN1CCc2ccc(Nc3ncc(Cl)c(N[C@@H]4[C@H](C(N)=O)[C@@H]5C=C[C@H]4C5)n3)cc2CC1 (relative stereo) [Example 459, (2-endo, 3-endo)-3-{5-Chloro-2-[3-(2-methoxy-ethyl)-2,3,4,5-tetrahydro-1H-benzo[d]azepin-7-ylamino]-pyrimidin-4-ylamino}-bicyclo[2.2.1]hept-5-ene-2-carboxylic acid amide]

IC50 [1, 5]: 100 to 1000 nM
IC50 [2, 6]: 1000 to 10000 nM
SMILES: CN1Cc2cc(Nc3ncc(Cl)c(Nc4ccccc4-c4nccn4C)n3)ccc2CCC1=O [Example 1802, 8-{5-Chloro-4-[2-(1-methyl-1H-imidazol-2-yl)-phenylamino]-pyrimidin-2-ylamino}-2-methyl-1,2,4,5-tetrahydro-benzo[c]azepin-3-one]

IC50 [1, 3]: 100 to 1000 nM
IC50 [2, 4]: < 100 nM
SMILES: C#CCN1CCc2ccc(Nc3ncc(Cl)c(N[C@@H]4CCCC[C@H]4NS(C)(=O)=O)n3)cc2CC1 [Example 325, N-{(1R,2R)-2-[5-Chloro-2-(3-prop-2-ynyl-2,3,4,5-tetrahydro-1H-benzo[d]azepin-7-ylamino)-pyrimidin-4-ylamino]-cyclohexyl}-methanesulfonamide]

IC50 [1, 7]: < 100 nM
IC50 [2, 8]: 100 to 1000 nM
SMILES: CNC(=O)c1cccc(F)c1Nc1nc(Nc2ccc3c(c2)-n2ccnc2CCC3(C)C)ncc1Cl [Example 1270, 2-[5-Chloro-2-(6,6-dimethyl-5,6-dihydro-4H-3,10b-diaza-benz[e]azulen-9-ylamino)-pyrimidin-4-ylamino]-3-fluoro-N-methyl-benzamide]

IC50 [1, 5]: 100 to 1000 nM
IC50 [2, 6]: < 100 nM
SMILES: CNC(=O)c1cc(C)cc(C)c1Nc1nc(Nc2ccc3c(c2)CCNC(=O)C3)ncc1Cl [Example 1814, 2-[5-Chloro-2-(2-oxo-2,3,4,5-tetrahydro-1H-benzo[d]azepin-7-ylamino)-pyrimidin-4-ylamino]-3,5,N-trimethyl-benzamide]

IC50 [1, 5]: 1000 to 10000 nM
IC50 [2, 6]: 1000 to 10000 nM
SMILES: CNC(=O)c1cccc(F)c1Nc1nc(Nc2ccc3c(c2)CCC(=O)NC3(C)C)ncc1Cl [Example 1826, 2-(5-Chloro-2-(1,1-dimethyl-3-oxo-2,3,4,5-tetrahydro-1H-benzo[c]azepin-7-ylamino)pyrimidin-4-ylamino)-3-fluoro-N-methylbenzamide]

IC50 [1, 7]: > 10000 nM
IC50 [2, 8]: < 100 nM
SMILES: CCN1C(=O)C(N)CCc2c1ccc(Nc1ncc(Cl)c(Nc3ccccc3S(=O)(=O)N(C)C)n1)c2OC (stereo not drawn) [Example 1336, 2-[2-(3-Amino-1-ethyl-6-methoxy-2-oxo-2,3,4,5-tetrahydro-1H-benzo[b]azepin-7-ylamino)-5-chloro-pyrimidin-4-ylamino]-N,N-dimethyl-benzenesulfonamide]

IC50 [1, 5]: < 100 nM
IC50 [2, 6]: < 100 nM
SMILES: CNC(=O)c1cccc(F)c1Nc1nc(Nc2ccc3c(c2)OCCCN3C(=O)OC2CCCN(C)C2)ncc1Cl (stereo not drawn) [Example 1438, 3-[5-Chloro-4-(2-fluoro-6-methylcarbamoyl-phenylamino)-pyrimidin-2-ylamino]-7,8-dihydro-6H-5-oxa-9-aza-benzocycloheptene-9-carboxylic acid 1-methyl-piperidin-3-yl ester]

IC50 [1, 7]: 100 to 1000 nM
IC50 [2, 8]: < 100 nM
SMILES: COc1cc(N2CCOCC2)ccc1Nc1nc(Nc2ccc3c(c2)NC(=O)CCC3(C)C)ncc1Cl [Example 1234, 8-[5-Chloro-4-(2-methoxy-4-morpholin-4-yl-phenylamino)-pyrimidin-2-ylamino]-5,5-dimethyl-1,3,4,5-tetrahydro-1-benzazepin-2-one]

IC50 [1, 9]: 1000 to 10000 nM
IC50 [2, 10]: 100 to 1000 nM
SMILES: COCCN1CCc2ccc(Nc3ncc(Cl)c(Nc4cc(C)n[nH]4)n3)cc2CC1 [Example 955, 5-Chloro-N(2)-[3-(2-methoxy-ethyl)-2,3,4,5-tetrahydro-1H-3-benzazepin-7-yl]-N(4)-(5-methyl-2H-pyrazol-3-yl)-pyrimidine-2,4-diamine]

IC50 [1, 5]: 1000 to 10000 nM
IC50 [2, 6]: < 100 nM
SMILES: CCN1C(=O)CCCc2cc(Nc3ncc(Cl)c(N[C@@H]4CCCC[C@H]4N(C)S(C)(=O)=O)n3)c(OC)cc21 [Example 1678, N-{(1R,2R)-2-[5-Chloro-2-(1-ethyl-8-methoxy-2-oxo-2,3,4,5-tetrahydro-1H-benzo[b]azepin-7-ylamino)-pyrimidin-4-ylamino]-cyclohexyl}-N-methyl-methanesulfonamide]

IC50 [1, 9]: > 10000 nM
IC50 [2, 10]: < 100 nM
SMILES: COc1cc2c(cc1Nc1ncc(Cl)c(Nc3ccc(N4CCOCC4)cc3-n3cccn3)n1)CCN(CC(=O)N(C)C)CC2 [Example 626, 2-{7-[5-Chloro-4-(4-morpholin-4-yl-2-pyrazol-1-yl-phenylamino)-pyrimidin-2-ylamino]-8-methoxy-1,2,4,5-tetrahydro-benzo[d]azepin-3-yl}-N,N-dimethyl-acetamide]

IC50 [1, 9]: > 10000 nM
IC50 [2, 10]: < 100 nM
SMILES: COc1cc(N2CCN(C)CC2)ccc1Nc1nc(Nc2cccc3c2OCCCC3(C)C)ncc1Cl [Example 872, 5-Chloro-N*2*-(5,5-dimethyl-2,3,4,5-tetrahydro-benzo[b]oxepin-9-yl)-N*4*-[2-methoxy-4-(4-methyl-piperazin-1-yl)-phenyl]-pyrimidine-2,4-diamine]

IC50 [1, 9]: > 10000 nM
IC50 [2, 10]: < 100 nM
SMILES: COc1cc2c(cc1Nc1ncc(Cl)c(Nc3ccccc3S(=O)(=O)N(C)C)n1)CCN(CC(F)F)CC2 [Example 822, 2-{5-Chloro-2-[3-(2,2-difluoro-ethyl)-8-methoxy-2,3,4,5-tetrahydro-1H-benzo[d]azepin-7-ylamino]-pyrimidin-4-ylamino}-N,N-dimethyl-benzenesulfonamide]

IC50 [1, 3]: 100 to 1000 nM
IC50 [2, 4]: < 100 nM
SMILES: CCNC(=O)c1ccccc1Nc1nc(Nc2cc3c(cc2OC)CC(=O)NCC3)ncc1Cl [Example 265, 2-[5-Chloro-2-(8-methoxy-2-oxo-2,3,4,5-tetrahydro-1H-benzo[d]azepin-7-ylamino)-pyrimidin-4-ylamino]-N-ethyl-benzamide]

IC50 [1, 3]: > 10000 nM
IC50 [2, 4]: < 100 nM
SMILES: COc1cc2c(cc1Nc1ncc(Cl)c(N[C@@H]3CCCC[C@H]3NS(C)(=O)=O)n1)CCN(CC(=O)N(C)C)CC2 [Example 258, 2-{7-[5-Chloro-4-((1R,2R)-2-methanesulfonylamino-cyclohexylamino)-pyrimidin-2-ylamino]-8-methoxy-1,2,4,5-tetrahydro-benzo[d]azepin-3-yl}-N,N-dimethyl-acetamide]

IC50 [1, 5]: 100 to 1000 nM
IC50 [2, 6]: < 100 nM
SMILES: CNC(=O)c1ccccc1Nc1nc(Nc2ccc3c(c2)C(C)(C)NC(=O)CC3)ncc1Cl [Example 1833, 2-(5-Chloro-2-(1,1-dimethyl-3-oxo-2,3,4,5-tetrahydro-1H-benzo[c]azepin-8-ylamino)pyrimidin-4-ylamino)-N-methylbenzamide]

IC50 [1, 9]: > 10000 nM
IC50 [2, 10]: < 100 nM
SMILES: COc1c(Nc2ncc(Cl)c(N[C@H]3[C@@H](C(N)=O)[C@@H]4C=C[C@H]3C4)n2)ccc2c1CCC(NCCO)CC2 (single isomer, unassigned) [Example 696]

IC50 [1, 9]: < 100 nM
IC50 [2, 10]: < 100 nM
SMILES: CCN1CCN(CC)c2cc(Nc3ncc(Cl)c(Nc4ccccc4S(=O)(=O)N(C)C)n3)ccc2C1 [Example 730, 2-[5-Chloro-2-(1,4-diethyl-2,3,4,5-tetrahydro-1H-benzo[e][1,4]diazepin-8-ylamino)-pyrimidin-4-ylamino]-N,N-dimethyl-benzenesulfonamide]

SMILES: CS(=O)(=O)N[C@@H]1CCCC[C@H]1Nc1nc(Nc2ccc3c(c2)C2CCC(C3)N2)ncc1Cl (stereo partly drawn) [Example 82, N-{(1R,2R)-2-[2-(12-Aza-tricyclo[7.2.1.0*2,7*]dodeca-2(7),3,5-trien-4-ylamino)-5-chloro-pyrimidin-4-ylamino]-cyclohexyl}-methanesulfonamide]
IC50 [1, 3]: 100 to 1000 nM
IC50 [2, 4]: 1000 to 10000 nM

IC50 [1, 9]: 1000 to 10000 nM
IC50 [2, 10]: < 100 nM
SMILES: CCNC(=O)c1cccc(F)c1Nc1nc(Nc2cc3c(cc2OC)CCN(CC(F)F)CC3)ncc1Cl [Example 777, 2-{5-Chloro-2-[3-(2,2-difluoro-ethyl)-8-methoxy-2,3,4,5-tetrahydro-1H-benzo[d]azepin-7-ylamino]-pyrimidin-4-ylamino}-N-ethyl-3-fluoro-benzamide]

IC50 [1, 3]: > 10000 nM
IC50 [2, 4]: < 100 nM
SMILES: CCC1C(=O)N(CC)CCc2cc(Nc3ncc(Cl)c(NC4CCCCC4NS(C)(=O)=O)n3)c(OC)cc21 [Example 151, N-{(1R,2R)-2-[5-Chloro-2-(1,3-diethyl-8-methoxy-2-oxo-2,3,4,5-tetrahydro-1H-benzo[d]azepin-7-ylamino)-pyrimidin-4-ylamino]-cyclohexyl-methanesulfonamide]

IC50 [1, 9]: 1000 to 10000 nM
IC50 [2, 10]: < 100 nM
SMILES: CN1CCN(c2ccc(Nc3nc(Nc4ccc5c(c4)C(C)(C)CCC(=O)N5)ncc3Cl)c(-n3cccn3)c2)CC1 [Example 628, 7-{5-Chloro-4-[4-(4-methyl-piperazin-1-yl)-2-pyrazol-1-yl-phenylamino]-pyrimidin-2-ylamino}-5,5-dimethyl-1,3,4,5-tetrahydro-benzo[b]azepin-2-one]

IC50 [1, 7]: < 100 nM
IC50 [2, 8]: < 100 nM
SMILES: CNC(=O)c1cccc(F)c1Nc1nc(Nc2ccc3c(c2)CCN(C[C@@H](OC)C(F)(F)F)CC3)ncc1Cl [Example 1361, 2-{5-Chloro-2-[3-((R)-3,3,3-trifluoro-2-methoxy-propyl)-2,3,4,5-tetrahydro-1H-benzo[d]azepin-7-ylamino]-pyrimidin-4-ylamino}-3-fluoro-N-methyl-benzamide]
